# In patent US20230293614A1, “COMPOSITIONS AND METHODS OF TREATING UPS-ASSOCIATED DISEASES” (Board of Supervisors of Louisiana State University and …, priority 2020, published 2023):
# Columns and labels:
# [1] = system: deubiquitinating enzymes (DUBs); experiment: DUB activity (Z-LRGG-AMC cleavage) in lysates of treated MM.1S cells; format: cell-based; details: for Vmax / effect on DUB activity vs DMSO control / Km / n (Hill coefficient): 16 h
# Procedure: OPM2 cells were maintained in RPMI 1640 media supplemented with 12% FBS, 21.8 mM glucose, 8.6 mM HEPES (pH 7.4) and 1.0 mM sodium pyruvate. MM.1S cell line were maintained in RPMI 1640 media supplemented with 10% FBS. The cells were all cultured in T175 flasks (VWR, Radnor, Pa.). All media components were from Corning, Atlanta, Ga. unless otherwise noted. To test the effect of the ethanolic extract and bioactive compounds on DUB activity, cells were exposed to a 16-h pretreatment with 10 μg/mL of PMI-5011 and 1, 10, 30 μg/mL concentrations of DMC-1, DMC-2, KOE, and davidigenin before lysing the cells for experimentation. All compounds were reconstituted in DMSO to obtain stock concentrations, which was further diluted in culture media to obtain the desired experimental concentrations. For vehicle control, a subpopulation of cells was treated with pure DMSO diluted in a similar manner for the same duration. Upon treatment, cell lysates (both OPM2 and MM.1S) were generated by harvesting 1×10^6 cells/mL, followed by washing 2× and pelleting in phosphate buffered saline (PBS; 137 mM NaCl, 10 mM Na2HPO4, […], and 1.75 mM KH2PO4 at pH 7.4). The cell pellet was re-suspended in an approximately equivalent volume of M-PER to the volume of the cell pellet (1000-2000 μL) then vortexed for 10 min at room temperature. Following this, the mixture was centrifuged at 14,000×g for 15 min at 4° C. and the supernatant transferred to a centrifuge tube and stored on ice until use. Total protein concentration was determined using a NanoDrop 2000c (Thermo Scientific, Madison, Wis.).
# The commercial DUB reporter, Z-LRGG-AMC (substrate) (SEQ ID NO: 1) was reconstituted in DMSO to obtain a final stock concentration of 1.44 mM. This stock reporter was diluted as needed in assay buffer (50 mM HEPES, pH 7.4, 150 mM NaCl, 2 mM DTT, and 0.02% Tween-20) supplemented with 4 mg/mL cell lysates (source of DUBs) to reach the desired reporter concentration with a final volume of 100 μL in a 96-well plate. OPM2 and MM.1S cell lysates from different treatments (10 μg/mL of PMI-5011; 1, 10, and 30 μg/mL of DMC-1, DMC-2, KOE, davidigenin and control vehicle DMSO) and C2C12 cell lysates were used to interrogate the effect of the ethanolic extract and selected bioactive compounds on DUB activity. Reporter only and lysates only (noise/background) samples were included in the 96-well plate to confirm that the rates observed were due to DUB-mediated hydrolysis initiated by the cell lysates. The 96-well plate was maintained at a temperature of 30° C. in the dark for the duration of the experiment. The fluorescence signals emitted as a result of DUB-mediated cleavage of AMC (λex=355 nm and λem=460 nm) were quantified using a Wallac 1420 VICTOR2 multilabel HTS counter fluorometry (Perkin Elmer (Waltham, Mass.). Readings were collected every 30 min for 6 h. The normalized signals were obtained by comparing the treatment with noise and background fluorescence values which were then statistically analyzed for their significance. Each data point represents triplicate data points from duplicate experiments. A calibration curve was generated for known concentrations of AMC to correlate the fluorescence signal (AU) to concentration (μM). The approximate concentration of free fluorophore was used to calculate reaction rates (μM/min) for each substrate concentration using linear regression analysis.
# All data visualization, interpretation and curve-fittings were performed using Origin Pro (OriginLab, Northampton, MA) while statistical analyses of experimental data were carried out using SAS 9.4 (SAS Solutions). The analyses of enzyme-substrate reactions in all cell lysates started with scatter plotting the fluorometry signals (p,M) measured for each substrate concentration against time (min). Fluorescence signals measured for each substrate concentration remained stable during the first 30 min, indicating there was a 30-minute lag period before reaction initiation. […]
# DUB = experiment: Experiment 3: DUB reporter Z-LRGG-AMC with control, 5011 and DMC-2 treated lysates; format: biochemical
# Procedure: Peptide used was the commercial DUB reporter [Z-LRGG-AMC (SEQ ID NO: 1)] at multiple concentrations [50-150 uM]. 1100 uL protein at 6 mg/mL for each set was given. Final protein concentration in micro-wells was 4 mg/mL. Peptide was incubated with control, 5011 treated, 1 ug/mL DMC-2, 10 ug/mL DMC-2, and 30 ug/mL DMC-2 in DUB assay buffer. Fluorometric readings were taken at different time points in plate reader. Measured at [Em 460/Ex 355]. Fluorescent signals were converted to μM/min using a calibration curve for the AMC fluorophore. Rates were plotted vs. substrate concentration (Z-LRGG-AMC peptide (SEQ ID NO: 1)) (FIG. 10). […] The curves are not perfect logarithmic curves but we can observe the trend. The results with different concentrations of DMC-2 were further plotted. When compared with control: the 5011 treatment enhances DUB activity, DMC-2 being the active part of 5011, also enhances the DUB activity. From FIG. 11, the lowest concentration of DMC2-1 μg/mL has most effect on DUB activity when compared to 30 μg/mL. Without wishing to be bound by theory, some data fluctuation with DMC-2 can occur in the 1 μg/mL range.
structure (smiles),measurement,setting,value
"COc1ccc(CCC(=O)c2ccc(O)cc2O)cc1 [DMC-2, 1-(2,4-dihydroxyphenyl)-3-(4-methoxyphenyl)propan-1-one]",Vmax,[1]; 1 μg/mL,22.70 ± 1.71 µM/min
same,effect on DUB activity vs DMSO control,[1]; 1 μg/mL,significantly enhanced
same,Vmax,[1]; 10 μg/mL,18.13 ± 0.14 µM/min
same,effect on DUB activity vs DMSO control,[1]; 10 μg/mL,significantly enhanced
same,Vmax,[1]; 30 μg/mL,18.12 ± 7.21 µM/min
same,effect on DUB activity vs DMSO control,[1]; 30 μg/mL,significantly enhanced
same,effect of increasing concentration on DUB activity (normalized Vmax),"[1]; 1, 10, 30 μg/mL, regression fit",negative linear effect
same,Km,"[1]; Table 2, 1 μg/mL",44.8 µM
same,Vmax,"[1]; Table 2, 1 μg/mL",0.0227 µM/min
same,n (Hill coefficient),"[1]; Table 2, 1 μg/mL",~1.00
same,Km,"[1]; Table 2, 10 μg/mL",39.4 µM
same,Vmax,"[1]; Table 2, 10 μg/mL",0.0181 µM/min
same,n (Hill coefficient),"[1]; Table 2, 10 μg/mL",1.68
same,Km,"[1]; Table 2, 30 μg/mL",42.2 µM
same,Vmax,"[1]; Table 2, 30 μg/mL",0.0181 µM/min
same,n (Hill coefficient),"[1]; Table 2, 30 μg/mL",1.06
same,concentration with most effect on DUB activity,DUB; compared to 30 μg/mL,1 µg/mL
same,effect on DUB activity vs control,"DUB; treated lysates 4 mg/mL, DMC-2 at 1, 10, 30 ug/mL",enhances
